Results on five compounds are retold here after patent publication US6221858A, “Pyridyl-and pyrimidyl-piperazines in the treatment of substance abuse disorders” (priority 1996, dated 2001).

The structures appear in SMILES notation. Where a name gives a salt, the structure may show the parent alone. Read-outs that look alike come from different tables or passages of the source.

One series deals with monkeys. The conditions noted are these: cited from earlier work.
The test system of series [1] is alcohol-dependent individuals. The conditions noted are these: compared to placebo; cited from earlier work.
The next series deals with T1, 5-HT1A Sites (Rattus norvegicus, UniProt P19327).
T1 sequence (P19327 1-422): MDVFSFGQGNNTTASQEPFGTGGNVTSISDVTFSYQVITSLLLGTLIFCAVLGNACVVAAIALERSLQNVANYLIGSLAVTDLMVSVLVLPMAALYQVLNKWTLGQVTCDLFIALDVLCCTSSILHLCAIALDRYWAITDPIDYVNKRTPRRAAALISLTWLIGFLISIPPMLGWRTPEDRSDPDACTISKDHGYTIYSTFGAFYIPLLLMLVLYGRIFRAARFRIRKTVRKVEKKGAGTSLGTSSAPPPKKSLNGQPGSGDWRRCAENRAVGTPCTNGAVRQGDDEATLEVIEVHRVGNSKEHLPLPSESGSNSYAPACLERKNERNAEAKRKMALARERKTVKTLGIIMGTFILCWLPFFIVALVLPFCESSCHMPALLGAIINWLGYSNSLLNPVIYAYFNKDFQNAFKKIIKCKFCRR
Nature of the series: biochemical. Format: binding.

The target in another series is T2, 5-HT2A Sites (Rattus norvegicus, UniProt P14842).
T2 construct: Radioligand: ^3 H-Ketanserin Tissue: Cerebral cortex; from tissue; host or cells: cerebral cortex
T2 sequence (P14842 whole entry): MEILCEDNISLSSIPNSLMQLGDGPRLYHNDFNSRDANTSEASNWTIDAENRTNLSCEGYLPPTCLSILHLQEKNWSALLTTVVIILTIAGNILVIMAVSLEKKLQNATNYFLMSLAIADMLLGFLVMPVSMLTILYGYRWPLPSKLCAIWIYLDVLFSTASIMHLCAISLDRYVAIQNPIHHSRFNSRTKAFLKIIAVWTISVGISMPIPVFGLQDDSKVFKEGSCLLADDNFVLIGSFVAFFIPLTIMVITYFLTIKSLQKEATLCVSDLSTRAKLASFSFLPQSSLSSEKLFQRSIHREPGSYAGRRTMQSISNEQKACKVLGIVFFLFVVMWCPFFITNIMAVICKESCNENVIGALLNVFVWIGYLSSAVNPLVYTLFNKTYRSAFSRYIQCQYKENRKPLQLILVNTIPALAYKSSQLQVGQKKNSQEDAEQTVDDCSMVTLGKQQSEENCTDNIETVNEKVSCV
Nature of the series: Drug affinity for 5-HT2A sites (3H-Ketanserin binding, cerebral cortex). Conditions: Radioligand 3H-Ketanserin; tissue cerebral cortex.

In series [2] the target is T3, [3H]-5-HT uptake by synaptosomes from rat frontal cortex (Rattus norvegicus, UniProt P31652).
T3 construct: synaptosomes from rat frontal cortex; from tissue; host or cells: rat frontal cortex synaptosomes
T3 sequence (P31652 whole entry): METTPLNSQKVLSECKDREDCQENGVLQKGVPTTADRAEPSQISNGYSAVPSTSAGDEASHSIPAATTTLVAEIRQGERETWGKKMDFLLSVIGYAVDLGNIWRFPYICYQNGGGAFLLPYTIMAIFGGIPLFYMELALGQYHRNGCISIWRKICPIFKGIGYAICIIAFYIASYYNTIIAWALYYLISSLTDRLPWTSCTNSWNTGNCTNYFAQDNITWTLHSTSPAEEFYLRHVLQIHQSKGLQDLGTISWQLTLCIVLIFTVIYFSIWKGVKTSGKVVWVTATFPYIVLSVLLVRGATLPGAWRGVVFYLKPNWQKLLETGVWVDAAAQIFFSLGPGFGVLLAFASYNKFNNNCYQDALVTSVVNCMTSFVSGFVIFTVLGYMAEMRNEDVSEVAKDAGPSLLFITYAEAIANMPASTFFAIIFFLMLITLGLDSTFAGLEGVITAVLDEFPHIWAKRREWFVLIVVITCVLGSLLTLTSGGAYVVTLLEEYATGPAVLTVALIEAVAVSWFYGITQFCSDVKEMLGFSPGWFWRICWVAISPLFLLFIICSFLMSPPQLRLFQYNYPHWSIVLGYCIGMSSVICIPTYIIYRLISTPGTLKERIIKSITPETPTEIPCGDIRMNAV
In words: Uptake of [3H]-5-HT by synaptosomes from rat frontal cortex. Format: biochemical.

In series [3] the test system is alcohol preferring (P) rats. Nature of the series: Effect on alcohol intake in alcohol preferring (P) rats. The series is classed as in vivo, rat. The protocol: To further illustrate the useful pharmacological properties of compounds of formula (I), the effect of Compound A administered systematically was determined in alcohol preferring (P) rats. Because of its pattern of drinking, the P animal seems to represent a valid genetically based model to approximate the human condition of alcoholism (McBride et al., Alcohol 7:199-205, 1990; Lankford et al., Pharmacol. Biochem. Behav. 8:293-299,1991). After maximally preferred alcohol concentrations had stabilised for four days, Compound A in a dose of 2.5 and 10 mg/kg was administered twice a day over four consecutive days. […] The highest dose of Compound A reduced intake of alcohol by >40%.

A further series has as its system rats. Conditions: cited from earlier work.
Where [4] appears, read: Radioligand 3H-8-OH-DPAT, tissue hippocampus.

For the compound `O=C1CC2(CCCC2)CC(=O)N1CCCCN1CCN(c2ncccn2)CC1` [Buspirone], in the series on monkeys, the Consumption of alcohol result was “attenuate significantly”. Also, in series [1], the Drop-out rate entry is on record as “lower drop-out rate” and the Signs of craving result is “fewer signs of craving”.

For the compound `Cc1cccc(N2CCN(CCCCc3ccc(F)cc3)CC2)n1.O=C(O)/C=C/C(=O)O` [Compound A, 1-[4-(p-fluorophenyl)-butyl]-4-(6-methyl-2-pyridinyl)-piperazine fumarate], the Ki (in general, a measure of affinity in units of concentration, obtained from inhibition or displacement) is 0.9 nM on 5-HT1A Sites (setting [4]) and 10 nM at 5-HT2A Sites. Also, the IC50 (in general, the concentration needed to halve the response being measured) in series [2] came to 12000 nM. Moreover, in series [3] (after Compound A injections), the “Food and water after injections” value is reported as “returned to pre-drug levels”. The “Intake of alcohol (absolute g/kg and proportion of alcohol to total fluid intake)” value in series [3] (both doses, 2.5 and 10 mg/kg twice a day over four days, during administration) was “significantly reduced”. Also, in series [3] (each dose, during the period of injection), the “Ingestion of food and water” value is “increased the ingestion of food and water above pre-treatment levels”. The “Alcohol intakes after administration versus pre-treatment level” value in series [3] (five days following administration, intakes rebounded) was “still being significantly lower than those of the pre-treatment level”. Moreover, the “Reduction of intake of alcohol” value in series [3] (highest dose (10 mg/kg) twice a day over four consecutive days) is reported as more than 40%.

`CCOc1cccnc1N1CCN(CCCCc2ccc(F)cc2)CC1` [Compound B, 1-[4-(p-fluorophenyl)-butyl]-4-(3-ethoxy-2-pyridinyl)-piperazine fumarate]: the figures for the Ki at 5-HT1A Sites (setting [4]) and on 5-HT2A Sites were 1.7 nM and 1.6 nM, respectively.

For `CCNC(=O)N1CCN(CCCC(c2ccc(F)cc2)c2ccc(F)cc2)CC1` [Amperozide, reference compound], the Ki worked out at 805 nM on 5-HT1A Sites and 16 nM on 5-HT2A Sites. In series [2], this compound displayed an IC50 of 320 nM. Besides, in the series with rats, the Intake of alcohol result was “significantly attenuate”.

With `COC(=O)c1cccnc1N1CCN(CCCC(c2ccc(F)cc2)c2ccc(F)cc2)CC1` [FG5893, 2-[4-[4,4-bis(4-fluorophenyl)butyl]-1-piperazinyl]-3-pyridine-carboxylic acid methyl ester dihydrochloride ethylat, reference compound], the Ki at 5-HT1A Sites (setting [4]) was 0.7 nM. Also, the IC50 in series [2] (synaptosomes from rat frontal cortex, concentration which inhibits the uptake by 50%, read-out: IC50, uptake of [3H]-5-HT) turned out to be 80 nM.
